Where “and” joins values, the source holds several entries; their conditions need not be identical. Equal entries are not always repeated.
tested on: HCC1143; experiment: normalised viability (% of control), CellTiter-Blue; higher = more viable cells (100 = DMSO, 0 = benzethonium chloride kill control); conditions: 1 nM; incubation time: 72 h
Outline: (§1)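 384-well plates were pre-loaded with compound in 5 µl medium before 20 µl of breast cancer cell suspension was seeded. Following 72 h incubation, 2.5 µl CellTiter-Blue reagent was added for 2 h at 37 °C. Fluorescence was read at 560/590 nm and plates were normalised to vehicle (100) and a positive kill control (0), checked by Z'-factor. Normalised viability is reported at a single listed concentration of the series.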

Row | SMILES | normalised viability [%]
1 | O=C(O)C1(C(=O)O)CCC1.[NH2-].[NH2-].[Pt+2] [Carboplatin] | 90.7
2 | N#Cc1ccc(C(c2ccc(C#N)cc2)n2cncn2)cc1 [Letrozole] | 73.7
3 | C1CN1c1nc(N2CC2)nc(N2CC2)n1 [Triethylenemelamine] | 101
4 | CCCS(=O)(=O)Nc1ccc(F)c(C(=O)c2c[nH]c3ncc(-c4ccc(Cl)cc4)cc23)c1F [Vemurafenib] | 93.8
5 | O=C(O)C(=O)O.[NH-][C@@H]1CCCC[C@H]1[NH-].[Pt+2] [Oxaliplatin] | 93
6 | CCN(CC)CCCC(C)Nc1c2ccc(Cl)cc2nc2ccc(OC)cc12 (centres undefined) [Mepacrine] | 98.1
7 | Cc1ccc(-c2cc(C(F)(F)F)nn2-c2ccc(S(N)(=O)=O)cc2)cc1 [Celecoxib] | 90.7

tested on: Hs578T; experiment: as above; conditions: 0.099 nM; incubation time: 72 h
Outline: as §1

Row | SMILES | normalised viability [%]
8 | CCN(CC)CCCC(C)Nc1c2ccc(Cl)cc2nc2ccc(OC)cc12 (centres undefined) [Mepacrine] | 113

same assay, conditions: 0.1 nM; incubation time: 72 h

Row | SMILES | normalised viability [%]
9 | O=C(/C=C/c1cccnc1)NCCCCC1CCN(C(=O)c2ccccc2)CC1 [FK-866] | 105
10 | CC[C@@H]1C(=O)N(C)c2cnc(Nc3ccc(C(=O)NC4CCN(C)CC4)cc3OC)nc2N1C1CCCC1 [BI 2536] | 122

same assay, conditions: 1 nM; incubation time: 72 h

Row | SMILES | normalised viability
11 | Nc1nc(F)nc2c1ncn2[C@@H]1O[C@H](CO)[C@@H](O)[C@@H]1O [Fludarabine] | 109%
12 | Nc1ncn([C@H]2C[C@H](O)[C@@H](CO)O2)c(=O)n1 [Decitabine] | 90.4% and 111%
13 | O=C(O)C1(C(=O)O)CCC1.[NH2-].[NH2-].[Pt+2] [Carboplatin] | 125%
14 | N#Cc1ccc(C(c2ccc(C#N)cc2)n2cncn2)cc1 [Letrozole] | 94.5%
15 | C1CN1c1nc(N2CC2)nc(N2CC2)n1 [Triethylenemelamine] | 108%
16 | CCCS(=O)(=O)Nc1ccc(F)c(C(=O)c2c[nH]c3ncc(-c4ccc(Cl)cc4)cc23)c1F [Vemurafenib] | 112%
17 | O=C(O)C(=O)O.[NH-][C@@H]1CCCC[C@H]1[NH-].[Pt+2] [Oxaliplatin] | 96.7%
18 | CCN(CC)CCCC(C)Nc1c2ccc(Cl)cc2nc2ccc(OC)cc12 (centres undefined) [Mepacrine] | 127%
19 | Cc1ccc(-c2cc(C(F)(F)F)nn2-c2ccc(S(N)(=O)=O)cc2)cc1 [Celecoxib] | 111%

tested on: CAL-85-1; experiment: as above; conditions: 0.099 nM; incubation time: 72 h
Outline: as §1

Row | SMILES | normalised viability [%]
20 | CCN(CC)CCCC(C)Nc1c2ccc(Cl)cc2nc2ccc(OC)cc12 (centres undefined) [Mepacrine] | 101

same assay, conditions: 0.1 nM; incubation time: 72 h

Row | SMILES | normalised viability [%]
21 | O=C(/C=C/c1cccnc1)NCCCCC1CCN(C(=O)c2ccccc2)CC1 [FK-866] | 85.7
22 | CC[C@@H]1C(=O)N(C)c2cnc(Nc3ccc(C(=O)NC4CCN(C)CC4)cc3OC)nc2N1C1CCCC1 [BI 2536] | 96.3

same assay, conditions: 1 nM; incubation time: 72 h

Row | SMILES | normalised viability
23 | Nc1nc(F)nc2c1ncn2[C@@H]1O[C@H](CO)[C@@H](O)[C@@H]1O [Fludarabine] | 92.8%
24 | Nc1ncn([C@H]2C[C@H](O)[C@@H](CO)O2)c(=O)n1 [Decitabine] | 81.4% and 95.5%
25 | O=C(O)C1(C(=O)O)CCC1.[NH2-].[NH2-].[Pt+2] [Carboplatin] | 90.2%
26 | N#Cc1ccc(C(c2ccc(C#N)cc2)n2cncn2)cc1 [Letrozole] | 83.2%
27 | C1CN1c1nc(N2CC2)nc(N2CC2)n1 [Triethylenemelamine] | 107%
28 | CCCS(=O)(=O)Nc1ccc(F)c(C(=O)c2c[nH]c3ncc(-c4ccc(Cl)cc4)cc23)c1F [Vemurafenib] | 91.6%
29 | O=C(O)C(=O)O.[NH-][C@@H]1CCCC[C@H]1[NH-].[Pt+2] [Oxaliplatin] | 86.7%
30 | CCN(CC)CCCC(C)Nc1c2ccc(Cl)cc2nc2ccc(OC)cc12 (centres undefined) [Mepacrine] | 94.5%
31 | Cc1ccc(-c2cc(C(F)(F)F)nn2-c2ccc(S(N)(=O)=O)cc2)cc1 [Celecoxib] | 86.8%

tested on: MDA-MB-436; experiment: as above; conditions: 0.099 nM; incubation time: 72 h
Outline: as §1

Row | SMILES | normalised viability [%]
32 | CCN(CC)CCCC(C)Nc1c2ccc(Cl)cc2nc2ccc(OC)cc12 (centres undefined) [Mepacrine] | 112

same assay, conditions: 0.1 nM; incubation time: 72 h

Row | SMILES | normalised viability [%]
33 | O=C(/C=C/c1cccnc1)NCCCCC1CCN(C(=O)c2ccccc2)CC1 [FK-866] | 107
34 | CC[C@@H]1C(=O)N(C)c2cnc(Nc3ccc(C(=O)NC4CCN(C)CC4)cc3OC)nc2N1C1CCCC1 [BI 2536] | 112

same assay, conditions: 1 nM; incubation time: 72 h

Row | SMILES | normalised viability
35 | Nc1nc(F)nc2c1ncn2[C@@H]1O[C@H](CO)[C@@H](O)[C@@H]1O [Fludarabine] | 90.5%
36 | Nc1ncn([C@H]2C[C@H](O)[C@@H](CO)O2)c(=O)n1 [Decitabine] | 94.8% and 84.5%
37 | O=C(O)C1(C(=O)O)CCC1.[NH2-].[NH2-].[Pt+2] [Carboplatin] | 102%
38 | N#Cc1ccc(C(c2ccc(C#N)cc2)n2cncn2)cc1 [Letrozole] | 114%
39 | C1CN1c1nc(N2CC2)nc(N2CC2)n1 [Triethylenemelamine] | 98.5%
40 | CCCS(=O)(=O)Nc1ccc(F)c(C(=O)c2c[nH]c3ncc(-c4ccc(Cl)cc4)cc23)c1F [Vemurafenib] | 91.1%
41 | O=C(O)C(=O)O.[NH-][C@@H]1CCCC[C@H]1[NH-].[Pt+2] [Oxaliplatin] | 106%
42 | CCN(CC)CCCC(C)Nc1c2ccc(Cl)cc2nc2ccc(OC)cc12 (centres undefined) [Mepacrine] | 101%
43 | Cc1ccc(-c2cc(C(F)(F)F)nn2-c2ccc(S(N)(=O)=O)cc2)cc1 [Celecoxib] | 104%

tested on: DU-4475; experiment: as above; conditions: 0.099 nM; incubation time: 72 h
Outline: as §1

Row | SMILES | normalised viability [%]
44 | CCN(CC)CCCC(C)Nc1c2ccc(Cl)cc2nc2ccc(OC)cc12 (centres undefined) [Mepacrine] | 93.5

same assay, conditions: 0.1 nM; incubation time: 72 h

Row | SMILES | normalised viability [%]
45 | O=C(/C=C/c1cccnc1)NCCCCC1CCN(C(=O)c2ccccc2)CC1 [FK-866] | 102
46 | CC[C@@H]1C(=O)N(C)c2cnc(Nc3ccc(C(=O)NC4CCN(C)CC4)cc3OC)nc2N1C1CCCC1 [BI 2536] | 109

same assay, conditions: 1 nM; incubation time: 72 h

Row | SMILES | normalised viability
47 | Nc1nc(F)nc2c1ncn2[C@@H]1O[C@H](CO)[C@@H](O)[C@@H]1O [Fludarabine] | 101%
48 | Nc1ncn([C@H]2C[C@H](O)[C@@H](CO)O2)c(=O)n1 [Decitabine] | 102% and 101%
49 | O=C(O)C1(C(=O)O)CCC1.[NH2-].[NH2-].[Pt+2] [Carboplatin] | 104%
50 | N#Cc1ccc(C(c2ccc(C#N)cc2)n2cncn2)cc1 [Letrozole] | 96.3%
51 | C1CN1c1nc(N2CC2)nc(N2CC2)n1 [Triethylenemelamine] | 104%
52 | CCCS(=O)(=O)Nc1ccc(F)c(C(=O)c2c[nH]c3ncc(-c4ccc(Cl)cc4)cc23)c1F [Vemurafenib] | 88%
53 | O=C(O)C(=O)O.[NH-][C@@H]1CCCC[C@H]1[NH-].[Pt+2] [Oxaliplatin] | 99.8%
54 | CCN(CC)CCCC(C)Nc1c2ccc(Cl)cc2nc2ccc(OC)cc12 (centres undefined) [Mepacrine] | 111%
55 | Cc1ccc(-c2cc(C(F)(F)F)nn2-c2ccc(S(N)(=O)=O)cc2)cc1 [Celecoxib] | 89%

tested on: MDA-MB-231; experiment: as above; conditions: 0.099 nM; incubation time: 72 h
Outline: as §1

Row | SMILES | normalised viability [%]
56 | CCN(CC)CCCC(C)Nc1c2ccc(Cl)cc2nc2ccc(OC)cc12 (centres undefined) [Mepacrine] | 95.4

same assay, conditions: 0.1 nM; incubation time: 72 h

Row | SMILES | normalised viability [%]
57 | O=C(/C=C/c1cccnc1)NCCCCC1CCN(C(=O)c2ccccc2)CC1 [FK-866] | 96.6
58 | CC[C@@H]1C(=O)N(C)c2cnc(Nc3ccc(C(=O)NC4CCN(C)CC4)cc3OC)nc2N1C1CCCC1 [BI 2536] | 105

same assay, conditions: 1 nM; incubation time: 72 h

Row | SMILES | normalised viability
59 | Nc1nc(F)nc2c1ncn2[C@@H]1O[C@H](CO)[C@@H](O)[C@@H]1O [Fludarabine] | 89.1%
60 | Nc1ncn([C@H]2C[C@H](O)[C@@H](CO)O2)c(=O)n1 [Decitabine] | 111% and 91.6%
61 | O=C(O)C1(C(=O)O)CCC1.[NH2-].[NH2-].[Pt+2] [Carboplatin] | 105%
62 | N#Cc1ccc(C(c2ccc(C#N)cc2)n2cncn2)cc1 [Letrozole] | 78.8%
63 | C1CN1c1nc(N2CC2)nc(N2CC2)n1 [Triethylenemelamine] | 96.2%
64 | CCCS(=O)(=O)Nc1ccc(F)c(C(=O)c2c[nH]c3ncc(-c4ccc(Cl)cc4)cc23)c1F [Vemurafenib] | 113%
65 | O=C(O)C(=O)O.[NH-][C@@H]1CCCC[C@H]1[NH-].[Pt+2] [Oxaliplatin] | 101%
66 | CCN(CC)CCCC(C)Nc1c2ccc(Cl)cc2nc2ccc(OC)cc12 (centres undefined) [Mepacrine] | 101%
67 | Cc1ccc(-c2cc(C(F)(F)F)nn2-c2ccc(S(N)(=O)=O)cc2)cc1 [Celecoxib] | 117%

tested on: BT-549; experiment: as above; conditions: 0.099 nM; incubation time: 72 h
Outline: as §1

Row | SMILES | normalised viability [%]
68 | CCN(CC)CCCC(C)Nc1c2ccc(Cl)cc2nc2ccc(OC)cc12 (centres undefined) [Mepacrine] | 96.1

same assay, conditions: 0.1 nM; incubation time: 72 h

Row | SMILES | normalised viability [%]
69 | O=C(/C=C/c1cccnc1)NCCCCC1CCN(C(=O)c2ccccc2)CC1 [FK-866] | 97.3
70 | CC[C@@H]1C(=O)N(C)c2cnc(Nc3ccc(C(=O)NC4CCN(C)CC4)cc3OC)nc2N1C1CCCC1 [BI 2536] | 115

same assay, conditions: 1 nM; incubation time: 72 h

Row | SMILES | normalised viability
71 | Nc1nc(F)nc2c1ncn2[C@@H]1O[C@H](CO)[C@@H](O)[C@@H]1O [Fludarabine] | 110%
72 | Nc1ncn([C@H]2C[C@H](O)[C@@H](CO)O2)c(=O)n1 [Decitabine] | 110% and 109%
73 | O=C(O)C1(C(=O)O)CCC1.[NH2-].[NH2-].[Pt+2] [Carboplatin] | 95.2%
74 | N#Cc1ccc(C(c2ccc(C#N)cc2)n2cncn2)cc1 [Letrozole] | 105%
75 | C1CN1c1nc(N2CC2)nc(N2CC2)n1 [Triethylenemelamine] | 107%
76 | CCCS(=O)(=O)Nc1ccc(F)c(C(=O)c2c[nH]c3ncc(-c4ccc(Cl)cc4)cc23)c1F [Vemurafenib] | 114%
77 | O=C(O)C(=O)O.[NH-][C@@H]1CCCC[C@H]1[NH-].[Pt+2] [Oxaliplatin] | 89%
78 | CCN(CC)CCCC(C)Nc1c2ccc(Cl)cc2nc2ccc(OC)cc12 (centres undefined) [Mepacrine] | 86.5%
79 | Cc1ccc(-c2cc(C(F)(F)F)nn2-c2ccc(S(N)(=O)=O)cc2)cc1 [Celecoxib] | 90.7%

tested on: CAL-148; experiment: as above; conditions: 0.099 nM; incubation time: 72 h
Outline: as §1

Row | SMILES | normalised viability [%]
80 | CCN(CC)CCCC(C)Nc1c2ccc(Cl)cc2nc2ccc(OC)cc12 (centres undefined) [Mepacrine] | 115

same assay, conditions: 0.1 nM; incubation time: 72 h

Row | SMILES | normalised viability [%]
81 | O=C(/C=C/c1cccnc1)NCCCCC1CCN(C(=O)c2ccccc2)CC1 [FK-866] | 110
82 | CC[C@@H]1C(=O)N(C)c2cnc(Nc3ccc(C(=O)NC4CCN(C)CC4)cc3OC)nc2N1C1CCCC1 [BI 2536] | 98

same assay, conditions: 1 nM; incubation time: 72 h

Row | SMILES | normalised viability [%]
83 | Nc1nc(F)nc2c1ncn2[C@@H]1O[C@H](CO)[C@@H](O)[C@@H]1O [Fludarabine] | 81.9
84 | O=C(O)C1(C(=O)O)CCC1.[NH2-].[NH2-].[Pt+2] [Carboplatin] | 96.9
85 | N#Cc1ccc(C(c2ccc(C#N)cc2)n2cncn2)cc1 [Letrozole] | 107
86 | C1CN1c1nc(N2CC2)nc(N2CC2)n1 [Triethylenemelamine] | 108
87 | CCCS(=O)(=O)Nc1ccc(F)c(C(=O)c2c[nH]c3ncc(-c4ccc(Cl)cc4)cc23)c1F [Vemurafenib] | 98.4
88 | O=C(O)C(=O)O.[NH-][C@@H]1CCCC[C@H]1[NH-].[Pt+2] [Oxaliplatin] | 109
89 | CCN(CC)CCCC(C)Nc1c2ccc(Cl)cc2nc2ccc(OC)cc12 (centres undefined) [Mepacrine] | 96.9

— the supplement of paper PMC4862054
